US10851053B2, “Chemical compounds” (GlaxoSmithKline Intellectual Property Development Limited, priority 2016, dated 2020)
Several values for one entry are separate records, joined by “and”; a condition that tells them apart may be missing. Equal entries are not always repeated. Structures can show the parent of a compound that is named as a salt. Where two headings read alike, the source gives them in different places.

Tested on: ATF4 translation (ATF4 pathway), SH-SY5Y-ATF4-NanoLuc cells
Assay: ATF4 cell based assay (ATF4 5'-UTR NanoLuc luciferase reporter, Thapsigargin induced cellular stress)
Conditions: read-out: average ATF4 pathway inhibitory activity (IC50)
Source text: The ATF4 reporter assay measures the effect of Thapsigargin induced cellular stress on ATF4 expression. For this reporter assay, a stable cell line was created by transfecting SH-SY5Y cells with a plasmid containing the NanoLuc® luciferase gene fused to the 5′-UTR of ATF4, under the control of the CMV promoter. The ATF4 5′-UTR contains two open reading frames which mediate the cellular stress-dependent translation of the reporter gene. Clones stably expressing the reporter construct were isolated and selected based on the luminescence response to thapsigargin and inhibition of this signal by test compounds. Briefly, SH-SY5Y-ATF4-NanoLuc cells were challenged with Thapsigargin for 14-18 hours to determine the stress effect with or without test compounds.
Cells were propagated in growth media consisting of 90% DMEM F12 (InVitrogen #11320-033), 10% Fetal Bovine Serum (Gibco #10438-026), 5 mM Glutamax (Gibco #35050-061), 5 mM Hepes, (Gibco #15630-080), and 0.5 mg/ml Geneticin (Gibco #10131-027). Cells were prepared for the assay by removing all media from cells, washing the plated cells with phosphate buffered saline, and detached by adding a solution comprised of 10% Tryple express solution (InVitrogen12604-021) and 90% enzyme-free cell dissociation buffer HANKS base (Gibco 13150-016). The trypsin was deactivated by adding assay media comprised of 90% phenol-red free DMEM F12 (InVitrogen, 11039), 10% Fetal Bovine Serum (Gibco #10438-026), (5 mM Glutamax (Gibco #35050-061), 5 mM Hepes, (Gibco #15630-080), and 0.5 mg/ml Geneticin (Gibco #10131-027). Suspended cells were spun down at 300 g for 5 min, the supernatant was removed and the cell pellet was suspended in warm media (30-37° C.) comprised as above at (1e6 cell/ml).
Assay plates were prepared by adding 250 nL of compound stock solution in 100% DMSO to each well, followed by dispensing 20 microliters/well cell suspension to deliver 15-20 k cell/well. Cells were incubated for 1 hour at 37° C. Then, 5 μL of 1.5 μM or 1 μM of Thapsigargin (final concentration: 200-300 nM) was added to each well of cells. Assay plates containing cells were incubated for 14-18 hours at 37° C.
The measurement of luciferase produced by the ATF4 constructs was measured as follows. Aliquots of the Nano-Glo reagent (Nano-Glo® Luciferase Assay Substrate, Promega, N113, Nano-Glo® Luciferase Assay Buffer, Promega, N112 (parts of Nano-Glo® Luciferase Assay System, N1150) were brought to room temperature, the substrate and buffer were mixed according to manufacturer's instructions. The cell plates were equilibrated to room temperature. 25 microliters/well of the mixed Nano-Glo reagent were dispensed into assay wells and pulse spun to settle contents and the plate was sealed with film. The plates were incubated at room temperature for 1 hour before detecting luminescence on an Envision plate reader.
Compounds of the invention are tested for activity against ATF4 translation in the above assay.

[1] = SH-SY5Y-ATF4-NanoLuc cells challenged with Thapsigargin for 14-18 hours, average of two or more experimental runs

Row | IC50 [1] | SMILES | further results
1 | < 100 nM and 65 nM | O=C(COc1ccc(Cl)cc1)NCC1CCN(CC(O)COc2ccc(Cl)cc2)C1 (centres unmarked) [Example 77, 2-(4-chlorophenoxy)-N-((1-(3-(4-chlorophenoxy)-2-hydroxypropyl)pyrrolidin-3-yl)methyl)acetamide] | –
2 | 101 to 1000 nM | O=C(COc1ccc(Cl)cc1)NC[C@@H]1CCN(CCCOc2ccc(Cl)cc2)C1 [Example 70, (S)-2-(4-chlorophenoxy)-N-((1-(3-(4-chlorophenoxy)propyl)pyrrolidin-3-yl)methyl)acetamide] | –
3 | < 100 nM | O=C(COc1ccc(Cl)c(C(F)(F)F)c1)NCC1CCN(CCCOc2ccc(Cl)cc2)C1 (centres unmarked) [Example 72, 2-(4-chloro-3-(trifluoromethyl)phenoxy)-N-((1-(3-(4-chlorophenoxy)propyl)pyrrolidin-3-yl)methyl)acetamide] | –
4 | 101 to 1000 nM | O=C(COc1ccc(Cl)cc1)NCC1CC(=O)N(CCCOc2ccc(Cl)cc2)C1 (centres unmarked) [Example 81, 2-(4-chlorophenoxy)-N-((1-(3-(4-chlorophenoxy)propyl)-5-oxopyrrolidin-3-yl)methyl)acetamide] | –
5 | 101 to 1000 nM | O=C(COc1ccc(Cl)cc1)NCC1CCN(CCCOc2ccc(Cl)cc2Cl)C1 (centres unmarked) [Example 66, 2-(4-chlorophenoxy)-N-((1-(3-(2,4-dichlorophenoxy)propyl)pyrrolidin-3-yl)methyl)acetamide] | –
6 | < 100 nM | Cc1cc(OCC(=O)NCC2CCN(CCCOc3ccc(Cl)cc3)C2)ccc1Cl (centres unmarked) [Example 47, 2-(4-chloro-3-methylphenoxy)-N-((1-(3-(4-chlorophenoxy)propyl)pyrrolidin-3-yl)methyl)acetamide] | –
7 | 1000 to 10000 nM | O=C(COc1ccc(Cl)cc1)NCC1CCN(CCOc2ccc(Cl)nc2)C1 (centres unmarked) [Example 13, 2-(4-chlorophenoxy)-N-((1-(2-((6-chloropyridin-3-yl)oxy)ethyl)pyrrolidin-3-yl)methyl)acetamide] | –
8 | < 100 nM | O=C(COc1ccc(Cl)c(F)c1)NCC1CCN(CCCOc2ccc(Cl)cc2)C1 (centres unmarked) [Example 55, 2-(4-chloro-3-fluorophenoxy)-N-((1-(3-(4-chlorophenoxy)propyl)pyrrolidin-3-yl)methyl)acetamide] | –
9 | 101 to 1000 nM | O=C(COc1ccc(Cl)cc1)NCC1CCN(CCCOc2ccc(F)cc2)C1 (centres unmarked) [Example 49, 2-(4-chlorophenoxy)-N-((1-(3-(4-fluorophenoxy)propyl)pyrrolidin-3-yl)methyl)acetamide] | –
10 | 101 to 1000 nM | O=C(COc1ccc(Cl)cc1)NCC1CCN(CCCOc2cccc(Cl)c2)C1 (centres unmarked) [Example 50, 2-(4-chlorophenoxy)-N-((1-(3-(3-chlorophenoxy)propyl)pyrrolidin-3-yl)methyl)acetamide] | –
11 | 101 to 1000 nM | O=C(COc1ccc(Cl)cc1)NCC1CCN(CCCOc2ccc(C(F)(F)F)cc2)C1 (centres unmarked) [Example 63, 2-(4-chlorophenoxy)-N-((1-(3-(4-(trifluoromethyl)phenoxy)propyl)pyrrolidin-3-yl)methyl)acetamide] | –

More lines, now with the values behind:

Row | SMILES | IC50 [1] | further results
12 | O=C(COc1ccc(Cl)cc1)NCC1CCN(C(=O)C2CCc3cc(Cl)ccc3O2)C1 (centres unmarked) [Example 8, N-((1-(6-chlorochroman-2-carbonyl)pyrrolidin-3-yl)methyl)-2-(4-chlorophenoxy)acetamide] | < 100 nM | –
13 | O=C(COc1ccc(Cl)cc1)N1CCC(CNCCOc2ccc(Cl)cc2)C1 (centres unmarked) [Example 21, 2-(4-chlorophenoxy)-1-(3-(((2-(4-chlorophenoxy)ethyl)amino)methyl)pyrrolidin-1-yl)ethanone] | 101 to 1000 nM | –
14 | O=C(COc1ccc(Cl)cc1)NCC1(F)CCN(CCOc2ccc(Cl)cc2)C1 (centres unmarked) [Example 42, 2-(4-chlorophenoxy)-N-((1-(2-(4-chlorophenoxy)ethyl)-3-fluoropyrrolidin-3-yl)methyl)acetamide] | 101 to 1000 nM | –
15 | CC1C[C@H](CNC(=O)COc2ccc(Cl)cc2)CN1CCCOc1ccc(Cl)cc1 (stereo partly drawn) [Example 58, 2-(4-chlorophenoxy)-N-(((3R)-1-(3-(4-chlorophenoxy)propyl)-5-methylpyrrolidin-3-yl)methyl)acetamide] | 101 to 1000 nM | –
16 | O=C(COc1ccc(Cl)cc1)NC1C[C@@H]2CN(C(=O)COc3ccc(Cl)cc3)CC12 (stereo in doubt) [Example 32, 2-(4-chlorophenoxy)-N-((1S,5R)-3-(2-(4-chlorophenoxy)acetyl)-3-azabicyclo[3.2.0]heptan-6-yl)acetamide] | < 100 nM | –
17 | O=C(NCC1CCN(C(=O)COc2ccc(Cl)cc2)C1)C1Cc2cc(Cl)ccc2O1 (centres unmarked) [Example 18, 5-chloro-N-((1-(2-(4-chlorophenoxy)acetyl)pyrrolidin-3-yl)methyl)-2,3-dihydrobenzofuran-2-carboxamide] | 101 to 1000 nM | –
18 | O=C(COc1ccc(Cl)cc1)NCC1CCN(CCOc2ccc(Cl)cc2)C1 (centres unmarked) [Example 2, 2-(4-chlorophenoxy)-N-((1-(2-(4-chlorophenoxy)ethyl)pyrrolidin-3-yl)methyl)acetamide] | – | IC50: < 100 nM
19 | CC1CC(CNC(=O)COc2ccc(Cl)cc2)CN1C(=O)COc1ccc(Cl)cc1 (centres unmarked) [Example 39, 2-(4-chlorophenoxy)-N-((1-(2-(4-chlorophenoxy)acetyl)-5-methylpyrrolidin-3-yl)methyl)acetamide] | 101 to 1000 nM | –
20 | O=C(COc1ccc(Cl)nc1)N[C@H]1[C@@H]2CN(CCCOc3ccc(Cl)cc3)C[C@@H]21 [Example 71, N-((1R,5S,6s)-3-(3-(4-chlorophenoxy)propyl)-3-azabicyclo[3.1.0]hexan-6-yl)-2-((6-chloropyridin-3-yl)oxy)acetamide hydrochloride] | – | IC50 (SH-SY5Y-ATF4-NanoLuc cells challenged with Thapsigargin for 14-18 hours, average of two or more experimental runs, hydrochloride): 136 nM
21 | O=C(COc1ccc(Cl)cc1)NCC1(F)CCN(CCCOc2ccc(Cl)cc2)C1 (centres unmarked) [Example 60, 2-(4-chlorophenoxy)-N-((1-(3-(4-chlorophenoxy)propyl)-3-fluoropyrrolidin-3-yl)methyl)acetamide] | 101 to 1000 nM | –
22 | O=C(COc1ccc(Cl)cc1)NCC1CCN(C(=O)C2CC2c2ccc(Cl)cc2)C1 (centres unmarked) [Example 40, 2-(4-chlorophenoxy)-N-((1-(2-(4-chlorophenyl)cyclopropanecarbonyl)pyrrolidin-3-yl)methyl)acetamide] | < 100 nM | –
23 | O=C(COc1ccc(Cl)cc1)NOC1CCN(C(=O)COc2ccc(Cl)cc2)C1 (centres unmarked) [Example 33, 2-(4-chlorophenoxy)-N-((1-(2-(4-chlorophenoxy)acetyl)pyrrolidin-3-yl)oxy)acetamide] | 101 to 1000 nM | –
24 | O=C(COc1ccc(Cl)cc1)NCC1CC(=O)N(CCOc2ccc(Cl)cc2)C1 (centres unmarked) [Example 3, 2-(4-chlorophenoxy)-N-((1-(2-(4-chlorophenoxy)ethyl)-5-oxopyrrolidin-3-yl)methyl)acetamide] | < 100 nM | –
25 | O=C(COc1ccc(Cl)cn1)N[C@H]1[C@@H]2CN(CCCOc3ccc(Cl)cc3)C[C@@H]21 [Example 52, N-((1R,5S,6s)-3-(3-(4-chlorophenoxy)propyl)-3-azabicyclo[3.1.0]hexan-6-yl)-2-((5-chloropyridin-2-yl)oxy)acetamide] | < 100 nM | –
26 | O=C(COc1ccc(Cl)cc1)NC1CCN(C(=O)COc2ccc(Cl)cc2)C1 (centres unmarked) [Example 7, 2-(4-chlorophenoxy)-N-(1-(2-(4-chlorophenoxy)acetyl)pyrrolidin-3-yl)acetamide] | 1000 to 10000 nM | –
27 | O=C(COc1ccc(Cl)nc1)N[C@H]1[C@@H]2CN(CCCOc3ccc(Cl)cc3)C[C@@H]21 [Example 51, N-((1R,5S,6s)-3-(3-(4-chlorophenoxy)propyl)-3-azabicyclo[3.1.0]hexan-6-yl)-2-((6-chloropyridin-3-yl)oxy)acetamide] | < 100 nM | –
28 | O=C(COc1ccc(Cl)cc1)N[C@H]1[C@@H]2CN(C(=O)COc3ccc(Cl)cc3)C[C@@H]21 [Example 31, 2-(4-chlorophenoxy)-N-((1R,5S,6s)-3-(2-(4-chlorophenoxy)acetyl)-3-azabicyclo[3.1.0]hexan-6-yl)acetamide] | 101 to 1000 nM | –
29 | O=C(COc1ccc(Cl)cc1)NCC1CCN(C(=O)CCCc2ccc(Cl)cc2)C1 (centres unmarked) [Example 38, 2-(4-chlorophenoxy)-N-((1-(4-(4-chlorophenyl)butanoyl)pyrrolidin-3-yl)methyl)acetamide] | < 100 nM | –
